Legend:
[1] = biological target: T1, TEAD3 (Homo sapiens, UniProt Q99594); test: HiBiT degradation assay, HEK293T HiBiT-TEAD3; type: cell-based; conditions: 6 h
T1 construct: endogenous in cells; host or cells: HEK293T HiBiT knock-in
Procedure: (§1) HiBiT cells were inoculated into 96‐well flat‐bottomed tissue culture plates at a density of 50 000 cells per well, followed by adding degraders into the wells using the I‐DOT dispenser. After 6 h of incubation, the cells were lysed and assayed for degradation using the Nano‐Glo HiBiT Lysis Assay System (Promega, #N3030). Luminescence signals were read using an Envision plate reader (Revvity) and the data were analyzed using GraphPad Prism 9.5 software.
(§2) The ribonucleoprotein (RNP) complex was prepared by mixing 2 µg of NLS‐Cas9‐EGFP nuclease (Novoprotein, #E379‐01A), 50 pmol of sgRNA, 10 µL of electrotransfer solution, and 50 pmol of designed donor DNA, then incubated for 10 min at room temperature. One million HEK293T cells were resuspended in 10 µL of electrotransfection solution and mixed with 10 µL of the RNP complex. Electroporation was performed using a Celetrix SP100 electroporator at 480 V. After electroporation, the cells were transferred to antibiotic‐free DMEM complete medium for overnight culture. The following day, EGFP‐positive cells were sorted using a Sony MA 900 cell sorter, plated in a 96‐well cell culture plate (Servicebio, #CCP‐96H), and cultured for 4 weeks. After this period, positive clones were screened using the Nano‐Glo HiBiT Lytic Detection system (Promega, #N3030).

[2] = tested on: ES2 cells; test: Cell viability assay (CTG, 72 h) ES2; type: cell-based; conditions: Homo sapiens, ES-2, 72 h, 3-day compound treatment
Procedure: (§3) Cells were seeded at a density of 1000 cells per well in 96‐well flat‐bottomed cell culture plates and cultured overnight at 37 °C with 5% CO2 to allow for cell attachment. The following day, different concentrations of compounds were added using an I‐DOT dispenser. After 72 h, 25 µL of CellTiter‐Meiluncell Luminescent Cell Viability Reagent (Meilunbio, #PWL111‐2) was added and incubated for 15 min at room temperature. Luminescence signals were then measured using an Envision plate reader (Revvity). Data were analyzed using GraphPad Prism 9.5 software.^[ [30] ^]

[3] = tested on: A172 cells; test: Cell viability assay (CTG, 72 h) A172; type: cell-based; conditions: Homo sapiens, A 172, 72 h, 3-day compound treatment
Procedure: as §3

[4] = biological target: TEAD1 (Homo sapiens, UniProt P28347); test: HiBiT degradation assay, HEK293T HiBiT-TEAD1; type: cell-based; parameters: endogenous in cells; host or cells: HEK293T wild-type and CRBN-knockout; conditions: 6 h
Procedure: as §1, §2

[5] = tested on: HOS cells; test: Cell viability assay (CTG, 72 h) HOS; type: cell-based; conditions: Homo sapiens, HOS, 72 h, 3-day compound treatment
Procedure: as §3

[6] = Pharmacokinetic evaluation in ICR male mice; type: in vivo; conditions: mouse, plasma
[7] = tested on: A172 cells; test: DIA proteomics in A172 cells; type: cell-based, Homo sapiens; conditions: 100 nM, 24 h
Procedure: Cells were seeded in 6‐well plates at 1 × 10⁶ cells well^−1 and treated with 100 nM KG‐FP‐003 (n = 3). After 24 h incubation, cells were harvested, washed with ice‐cold PBS, and stored at −80 °C. Cell pellets were lysed in 4 volumes of lysis buffer (1% SDS, 1% protease inhibitor cocktail) followed by 3 min sonication on ice. After centrifugation (12 000 g, 10 min, 4 °C), supernatants were collected for BCA protein quantification. Proteins were reduced with 5 mM DTT (56 °C, 30 min), alkylated with 11 mM iodoacetamide (RT, dark, 15 min), and diluted with 200 mM TEAB to reduce urea concentration below 2 M. Trypsin digestion (1:50 enzyme‐to‐protein ratio) was performed at 37 °C overnight followed by additional 4 h digestion. Peptides were desalted using Strata‐X SPE columns. […] MS analysis was performed on a timsTOF Pro mass spectrometer in dia‐PASEF mode (ESI voltage: 1.75 kV; scan range: 300–1500 m z^−1). DIA data were processed using DIA‐NN (v1.8) against the Homo_sapiens_9606_SP_20 231 220.fasta database (20429 entries) with reversed decoys, using trypsin as the cleavage enzyme. Fixed modifications included N‐terminal methionine excision and carbamidomethylation of cysteine, with FDR set at <1%.

[8] = biological target: T2, SmBiT-CRBN+LgBiT-TEAD1 (Homo sapiens, UniProt P28347+Q96SW2); test: NanoBiT recruitment assay (ternary complex formation) in HEK293T cells; type: cell-based; conditions: 3 h
T2 construct: ternary complex formation between CRBN (41‐442) and TEAD1‐YBD (208‐424) in HEK293T cells; expressed in transfected cells; host or cells: HEK293T (transient co-transfection)
Procedure: CRBN was cloned into the SmBiT Flexi vector pFN35K (Promega), while TEAD1 was cloned into the Promega LgBiT Flexi vector pFN33K (Promega). A total of 8 µg of plasmid DNA, consisting of 2 µg of SmBiT‐CRBN plasmid and 6 µg of LgBiT‐TEAD1 plasmid, was mixed with 24 µL of the liposome transfection reagent Lipo2000 (Meilunbio, #MA0672), added to 300 µL of Opti‐MEM Reduced Serum medium (Meilunbio, #PWL042), and incubated for 20 min at room temperature. The resulting mixture was then added to 3 mL of HEK293T cell suspension at a density of 1 × 10^6 cells mL^−1 in DMEM medium containing 1% FBS, mixed thoroughly, and 18.4 µL of the mixture was transferred to each well of a white 384‐well plate (Corning, #3570), followed by incubation for 24 h. Subsequently, 2.5 µL of MLN4924 (MCE, #HY‐70062) was added to reach a final concentration of 1 µM, and the cells were incubated for an additional 4 h. Next, 3 µL of compound KG‐FP‐003 at the indicated concentrations was added, and incubation continued for 3 more hours. Afterward, a mixture of Nano‐Glo Live Cell Substrate and Nano‐Glo LCS Dilution Buffer (Promega, #N2011) was added to the 384‐well plates at 6 µL per well and incubated for 20 min at room temperature. Finally, the luminescence signal was measured using an Envision plate reader (Revvity), and the data were analyzed using GraphPad Prism 9.5 software.

[9] = biological target: T3, TEAD4 (Homo sapiens, UniProt Q15561); test: HiBiT degradation assay, HEK293T HiBiT-TEAD4; type: cell-based; conditions: 6 h
T3 construct: endogenous in cells; host or cells: HEK293T HiBiT knock-in
Procedure: as §1, §2

T1 sequence (Q99594 whole entry): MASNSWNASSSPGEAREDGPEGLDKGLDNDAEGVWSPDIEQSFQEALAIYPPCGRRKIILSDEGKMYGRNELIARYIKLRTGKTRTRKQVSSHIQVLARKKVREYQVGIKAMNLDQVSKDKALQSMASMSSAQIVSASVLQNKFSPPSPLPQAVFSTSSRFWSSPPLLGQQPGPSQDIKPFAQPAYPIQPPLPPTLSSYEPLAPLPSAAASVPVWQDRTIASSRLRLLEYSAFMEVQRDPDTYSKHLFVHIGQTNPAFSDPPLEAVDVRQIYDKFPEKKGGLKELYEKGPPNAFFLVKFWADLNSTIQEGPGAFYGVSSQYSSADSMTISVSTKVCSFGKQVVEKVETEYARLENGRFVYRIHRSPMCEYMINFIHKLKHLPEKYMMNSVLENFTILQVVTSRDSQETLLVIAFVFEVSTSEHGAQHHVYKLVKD
Chain of TEAD1 (P28347 whole entry): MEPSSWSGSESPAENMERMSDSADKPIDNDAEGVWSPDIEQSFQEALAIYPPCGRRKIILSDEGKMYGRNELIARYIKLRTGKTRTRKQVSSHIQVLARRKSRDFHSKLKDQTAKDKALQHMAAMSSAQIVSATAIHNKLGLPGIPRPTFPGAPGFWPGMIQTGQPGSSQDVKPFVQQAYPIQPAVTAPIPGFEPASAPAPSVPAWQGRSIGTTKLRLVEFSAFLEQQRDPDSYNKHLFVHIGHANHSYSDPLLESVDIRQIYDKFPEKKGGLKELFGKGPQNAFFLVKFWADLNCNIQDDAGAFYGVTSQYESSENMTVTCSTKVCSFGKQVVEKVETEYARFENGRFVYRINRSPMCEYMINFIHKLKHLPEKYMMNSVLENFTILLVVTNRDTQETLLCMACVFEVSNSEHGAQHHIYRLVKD
T3 sequence (Q15561 whole entry): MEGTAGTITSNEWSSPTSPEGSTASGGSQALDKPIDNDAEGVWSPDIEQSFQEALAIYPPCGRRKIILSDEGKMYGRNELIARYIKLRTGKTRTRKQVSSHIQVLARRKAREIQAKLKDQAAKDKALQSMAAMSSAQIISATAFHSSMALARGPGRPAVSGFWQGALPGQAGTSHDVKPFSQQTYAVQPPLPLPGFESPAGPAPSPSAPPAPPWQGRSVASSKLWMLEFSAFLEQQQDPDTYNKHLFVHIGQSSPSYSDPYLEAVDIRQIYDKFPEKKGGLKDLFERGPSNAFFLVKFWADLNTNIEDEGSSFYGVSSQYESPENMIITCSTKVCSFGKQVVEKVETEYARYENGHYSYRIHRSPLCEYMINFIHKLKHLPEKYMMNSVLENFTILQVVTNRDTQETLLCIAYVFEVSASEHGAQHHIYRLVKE
T2 sequence (Q96SW2 41-442): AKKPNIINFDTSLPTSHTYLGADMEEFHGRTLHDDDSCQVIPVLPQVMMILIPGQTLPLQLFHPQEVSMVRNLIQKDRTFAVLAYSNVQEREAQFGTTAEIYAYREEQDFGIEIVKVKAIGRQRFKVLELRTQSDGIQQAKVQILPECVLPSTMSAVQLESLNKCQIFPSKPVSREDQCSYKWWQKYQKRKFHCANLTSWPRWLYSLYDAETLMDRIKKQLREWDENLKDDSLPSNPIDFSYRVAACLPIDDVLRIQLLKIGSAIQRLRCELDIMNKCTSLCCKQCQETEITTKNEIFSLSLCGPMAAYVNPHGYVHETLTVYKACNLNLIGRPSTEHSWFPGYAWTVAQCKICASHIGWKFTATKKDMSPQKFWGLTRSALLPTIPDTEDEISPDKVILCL
T2 sequence (P28347 208-424): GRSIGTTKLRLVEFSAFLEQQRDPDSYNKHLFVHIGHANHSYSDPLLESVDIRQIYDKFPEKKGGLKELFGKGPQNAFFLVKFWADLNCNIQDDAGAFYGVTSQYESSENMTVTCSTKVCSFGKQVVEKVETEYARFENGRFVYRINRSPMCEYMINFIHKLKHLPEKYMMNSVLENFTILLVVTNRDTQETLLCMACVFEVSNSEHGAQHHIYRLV

Structure (SMILES): CNC(=O)c1cc2c(c(F)c1-c1c(Cl)c(F)cc3c1C[C@@](CN[C@H]1CC[C@H](C(=O)N4CCC(CC5CCN(C(=O)COc6ccc(N7CCC(=O)NC7=O)c(C)c6)CC5)CC4)CC1)(c1ccccc1)O3)[C@@H](O)[C@@H](C)C2 [KG-FP-003]
- DC50 [1]: 12 ± 5 nM
- TEAD3 Dmax [1]: ≈ 90%
- Dmax ([1]; HEK-293T): 87 ± 9%
- IC50 [2]: 202 ± 14 nM
- IC50 [3]: 7 ± 6 nM
- DC50 [4]: 6 ± 4 nM
- TEAD1 Dmax [4]: ≈ 90%
- Dmax ([4]; HEK-293T): 93 ± 1%
- IC50 [5]: 1.2 ± 1.5 nM
- AUC(0-inf) ([6]; IP 5 mg/kg): 2610 ng·h/mL
- AUC(0-t) ([6]; IP 5 mg/kg): 2560 ng·h/mL
- Cmax ([6]; IP 5 mg/kg): 2010 ng/mL
- MRT inf ([6]; IP 5 mg/kg): 3.13 h
- Tmax ([6]; IP 5 mg/kg): 0.42 h
- half-life ([6]; IP 5 mg/kg): 5.42 h
- bioavailability ([6]; IP 5 mg/kg, read-out: F% (bioavailability)): 99%
- AUC(0-inf) ([6]; IV 2 mg/kg): 1060 ng·h/mL
- AUC(0-t) ([6]; IV 2 mg/kg): 1040 ng·h/mL
- Cmax ([6]; IV 2 mg/kg): 4430 ng/mL
- MRT inf ([6]; IV 2 mg/kg): 1.4 h
- Tmax ([6]; IV 2 mg/kg): 0 h
- half-life ([6]; IV 2 mg/kg): 3.57 h
- Proteome-wide selectivity [7]: significantly and selectively downregulated TEAD1 protein levels
- EC50 [8]: 8 ± 4 nM
- DC50 [9]: 7 ± 5 nM
- TEAD4 Dmax [9]: ≈ 90%
- Dmax ([9]; HEK-293T): 88 ± 6%

From paper PMC12752627, “Discovery of a Potent and Selective TEAD Degrader with Durable Degradation Activity” (Advanced Science, 2025)
